Source: patent US20100120769A1, “CYCLOHEXYL PIPERAZINYL METHANONE DERIVATIVES” (priority 2006, published 2010)

Target: T1, histamine 3 receptor (H3R) (Homo sapiens, UniProt Q9Y5N1)
T1 construct: expressed in transfected cells; host or cells: CHO cells (HR3-CHO)
Test: Binding assay with 3H-(R)α-methylhistamine (competition binding, HR3-CHO membranes)
Conditions: membrane of the human HR3-CHO cell line, 3H(R)α-Methylhistamine 1 nM; Ki calculated from IC50 by Cheng-Prusoff
Method: Binding Assay with ^3H-(R)α-methylhistamine
Saturation binding experiments were performed using HR3-CHO membranes prepared as described in Takahashi, K, Tokita, S., Kotani, H. (2003) J. Pharmacol. Exp. Therapeutics 307, 213-218.
An appropriate amount of membrane (60 to 80 μg protein/well) was incubated with increasing concentrations of ^3H(R)α-Methylhistamine di-hydrochloride (0.10 to 10 nM). Non specific binding was determined using a 200 fold excess of cold (R)α-Methylhistamine dihydrobromide (500 nM final concentration). The incubation was carried out at room temperature (in deep-well plates shaking for three hours). The final volume in each well was 250 μl. The incubation was followed by rapid filtration on GF/B filters (pre-soaked with 100 μl of 0.5% PEI in Tris 50 mM shaking at 200 rpm for two hours). The filtration was made using a cell-harvester and the filter plates were then washed five times with ice cold washing buffer containing 0.5 M NaCl. After harvesting, the plates were dried at 55° C. for 60 min, then we added scintillation fluid (Microscint 40, 40 microl in each well) and the amount of radioactivity on the filter was determined in Packard top-counter after shaking the plates for two hours at 200 rpm at room temperature.
Binding Buffer: 50 mM Tris-HCl pH 7.4 and 5 mM MgCl2x6H2O pH 7.4. Washing Buffer: 50 mM Tris-HCl pH 7.4 and 5 mM MgCl2x6H2O and 0.5 M NaCl pH 7.4.
Indirect measurement of affinity of H3R inverse agonists: twelve increasing concentrations (ranging from 10 μM to 0.3 nM) of the selected compounds were always tested in competition binding experiments using membrane of the human HR3-CHO cell line. An appropriate amount of protein, e.g. approximately 500 cpm binding of RAMH at Kd, were incubated for 1 hour at room temperature in 250 μl final volume in 96-well plates in presence of ^3H(R)α-Methylhistamine (1 nM final concentration=Kd). […]
All compounds were tested at a single concentration in duplicates. […] Ki's were calculated from IC50 based on Cheng-Prusoff equation (Cheng, Y, Prusoff, W H (1973) Biochem Pharmacol 22, 3099-3108).

T1 sequence (Q9Y5N1 whole entry): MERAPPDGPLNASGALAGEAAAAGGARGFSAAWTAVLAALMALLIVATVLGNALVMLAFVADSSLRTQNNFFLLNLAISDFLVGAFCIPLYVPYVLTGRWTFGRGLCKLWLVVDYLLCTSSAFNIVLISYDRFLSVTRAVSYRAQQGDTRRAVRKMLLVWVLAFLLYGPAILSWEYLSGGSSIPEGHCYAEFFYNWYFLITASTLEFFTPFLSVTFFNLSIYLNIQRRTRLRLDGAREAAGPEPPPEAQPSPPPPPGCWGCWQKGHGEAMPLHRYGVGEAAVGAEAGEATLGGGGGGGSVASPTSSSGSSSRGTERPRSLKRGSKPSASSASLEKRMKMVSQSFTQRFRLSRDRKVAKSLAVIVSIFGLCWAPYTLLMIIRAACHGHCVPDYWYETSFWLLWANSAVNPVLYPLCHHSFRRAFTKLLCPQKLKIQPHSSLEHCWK

| Ki | SMILES |
| --- | --- |
| 88.1 nM | CC(C)N1CCN(C(=O)[C@H]2CC[C@H](NC(=O)c3ccc(Cl)cc3Cl)CC2)CC1 [Example 13, 2,4-dichloro-N-[trans-4-(4-isopropyl-piperazine-1-carbonyl)-cyclohexyl]-benzamide] |
| 38.4 nM | CC(C)N1CCN(C(=O)[C@H]2CC[C@H](NC(=O)N(C)c3cccc(F)c3)CC2)CC1 [Example 32, 1-(3-fluoro-phenyl)-3-[trans-4-(4-isopropyl-piperazine-1-carbonyl)-cyclohexyl]-1-methyl-urea] |
| 52.8 nM | Cc1ccc(NC2CCC(C(=O)N3CCN(C(C)C)CC3)CC2)cc1 (stereo not drawn) [Example 1, (4-Isopropyl-piperazin-1-yl)-(4-p-tolylamino-cyclohexyl)-methanone] |
